ChEMBL document CHEMBL1201862, “PubChem BioAssay data set” (2004)
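Protocol summary: plate cells (96-well), add compound at 5 concentrations, incubate 48 h, interpolate endpoints linearly. GI50 is the concentration that inhibits growth by half.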 The source made the active and inactive calls. Cut-off read from the data, not from the text of the source: active = GI50 up to about 1.1 µM and inactive = higher.

Legend:
Experiment in all cases: NCI anticancer screen, dose series, 48 h
MDA-MB-231 = tested on: MDA-MB-231
UACC-257 = tested on: UACC-257
HCT-116 = tested on: HCT-116
Malme-3M = tested on: Malme-3M
T47D = tested on: T47D
HCT-15 = tested on: HCT-15
A549 = tested on: A549
CCRF-CEM = tested on: CCRF-CEM
NCI-H23 = tested on: NCI-H23
NCI-H522 = tested on: NCI-H522
HOP-92 = tested on: HOP-92
M14 = tested on: M14
A498 = tested on: A498
SW-620 = tested on: SW-620
DU-145 = tested on: DU-145
MOLT-4 = tested on: MOLT-4
SN12C = tested on: SN12C
U-251 = tested on: U-251
SR = tested on: SR
SF-539 = tested on: SF-539

SMILES	GI50 (MDA-MB-231)	GI50 (UACC-257)	GI50 (HCT-116)	GI50 (Malme-3M)	GI50 (T47D)	GI50 (HCT-15) [µM]	GI50 (A549)	GI50 (CCRF-CEM)	GI50 (NCI-H23)	GI50 (NCI-H522)	GI50 (HOP-92)	GI50 (M14)	GI50 (A498)	GI50 (SW-620)	GI50 (DU-145)	GI50 (MOLT-4)	GI50 (SN12C)	GI50 (U-251)	GI50 (SR)	GI50 (SF-539)
O=c1cc(NNc2cccc(F)c2)[nH]c(=O)[nH]1	16.7 µM (inactive)	17.9 µM (inactive)	17.3 µM (inactive)	19.4 µM (inactive)	14.9 µM (inactive)	16.9	> 100 µM (inactive)	22.4 µM (inactive)	> 100 µM (inactive)	18.3 µM (inactive)	16.3 µM (inactive)	18.2 µM (inactive)	> 100 µM (inactive)	18.6 µM (inactive)	> 100 µM (inactive)	27.9 µM (inactive)	> 100 µM (inactive)	17.2 µM (inactive)	10.2 µM (inactive)	38.9 µM (inactive)
COC(=O)CN1Cc2cc(C)cc(c2O)CN(CC(=O)OC)Cc2cc(C)cc(c2O)CN(CC(=O)OC)Cc2cc(C)cc(c2O)CN(CC(=O)OC)Cc2cc(C)cc(c2O)C1	26.7 µM (inactive)	16.8 µM (inactive)	11.1 µM (inactive)	12.2 µM (inactive)	13.2 µM (inactive)	14.6	18.4 µM (inactive)	2.03 µM (inactive)	30.5 µM (inactive)	> 100 µM (inactive)	> 50 µM (inactive)	4.92 µM (inactive)	18.1 µM (inactive)	14.3 µM (inactive)	8.17 µM (inactive)	9.62 µM (inactive)	21.5 µM (inactive)	14 µM (inactive)	6.04 µM (inactive)	12.8 µM (inactive)
CN(C)c1ccc(C(C#N)N2CCCN(C(C#N)c3ccc(N(C)C)cc3)C2c2ccc(N(C)C)cc2)cc1 (stereo not given)	> 100 µM (inactive)	> 100 µM (inactive)	> 100 µM (inactive)	> 100 µM (inactive)	> 100 µM (inactive)	> 100	> 100 µM (inactive)	> 100 µM (inactive)	> 100 µM (inactive)	> 100 µM (inactive)	> 100 µM (inactive)	> 100 µM (inactive)	> 100 µM (inactive)	> 100 µM (inactive)	> 100 µM (inactive)	> 100 µM (inactive)	> 100 µM (inactive)	> 100 µM (inactive)	> 100 µM (inactive)	> 100 µM (inactive)
Clc1ccc(C2c3ccccc3-c3nc4ccccc4n32)cc1 (stereo not given)	> 84.1 µM (inactive)	53.7 µM (inactive)	5.09 µM (inactive)	38.8 µM (inactive)	> 27.2 µM (inactive)	17.3	7.33 µM (inactive)	17.9 µM (inactive)	15.5 µM (inactive)	11.6 µM (inactive)	34.8 µM (inactive)	31.8 µM (inactive)	25.1 µM (inactive)	44.8 µM (inactive)	58.2 µM (inactive)	8.09 µM (inactive)	42.1 µM (inactive)	24.3 µM (inactive)	8.99 µM (inactive)	> 54.7 µM (inactive)
Cc1ccc(C(=O)/C=C2/Nc3ccc([N+](=O)[O-])cc3N/C2=C/C(=O)c2ccc(C)cc2)cc1	29.1 µM (inactive)	> 100 µM (inactive)	> 100 µM (inactive)	> 100 µM (inactive)	> 100 µM (inactive)	90.8	> 100 µM (inactive)	88.3 µM (inactive)	37.7 µM (inactive)	47.1 µM (inactive)	61.4 µM (inactive)	> 100 µM (inactive)	44.7 µM (inactive)	> 100 µM (inactive)	> 100 µM (inactive)	> 100 µM (inactive)	> 100 µM (inactive)	27.7 µM (inactive)	54.2 µM (inactive)	52.8 µM (inactive)
Cc1ccc(S(=O)(=O)n2cc(C#N)c(C#N)c2)cc1	42.6 µM (inactive)	29.2 µM (inactive)	31 µM (inactive)	15.6 µM (inactive)	26.4 µM (inactive)	17.9	24.7 µM (inactive)	30.2 µM (inactive)	29.8 µM (inactive)	15.4 µM (inactive)	31 µM (inactive)	22.4 µM (inactive)	24.7 µM (inactive)	34.6 µM (inactive)	31.4 µM (inactive)	31.8 µM (inactive)	29.1 µM (inactive)	13.3 µM (inactive)	24.4 µM (inactive)	19.6 µM (inactive)
O=C(Nc1ccccc1)c1cc2c(cc1Cl)Sc1nccn1S2(=O)=O	27 µM (inactive)	18.7 µM (inactive)	12.1 µM (inactive)	30.1 µM (inactive)	19.1 µM (inactive)	19.1	36.4 µM (inactive)	17.3 µM (inactive)	18.4 µM (inactive)	21 µM (inactive)	2.58 µM (inactive)	16 µM (inactive)	18.5 µM (inactive)	21.1 µM (inactive)	18.9 µM (inactive)	15.6 µM (inactive)	46.1 µM (inactive)	25.5 µM (inactive)	14.8 µM (inactive)	23 µM (inactive)
CC1=NC(C)(COC(=O)C2(C)NC(C)(CO)CO2)COC1=O (stereo not given)	> 100 µM (inactive)	> 100 µM (inactive)	> 100 µM (inactive)	> 100 µM (inactive)	> 100 µM (inactive)	> 100	> 100 µM (inactive)	> 100 µM (inactive)	> 100 µM (inactive)	> 100 µM (inactive)	> 100 µM (inactive)	> 100 µM (inactive)	> 100 µM (inactive)	> 100 µM (inactive)	> 100 µM (inactive)	> 100 µM (inactive)	> 100 µM (inactive)	> 100 µM (inactive)	> 33 µM (inactive)	> 100 µM (inactive)
COc1cc(OC)cc(OCc2ccc3nc(-c4ccccc4)c(Cl)nc3c2)c1	7.16 µM (inactive)	> 100 µM (inactive)	29 µM (inactive)	11 µM (inactive)	24.7 µM (inactive)	> 100	49.9 µM (inactive)	> 100 µM (inactive)	17.3 µM (inactive)	5.05 µM (inactive)	18.8 µM (inactive)	> 100 µM (inactive)	35 µM (inactive)	59.8 µM (inactive)	52.7 µM (inactive)	25.9 µM (inactive)	40.7 µM (inactive)	20.9 µM (inactive)	19.7 µM (inactive)	18.4 µM (inactive)
COc1cc(C(O)c2ccc3c(c2)OCO3)cc(OC)c1OC (stereo not given)	> 100 µM (inactive)	> 100 µM (inactive)	> 100 µM (inactive)	> 100 µM (inactive)	37.1 µM (inactive)	> 100	> 100 µM (inactive)	> 100 µM (inactive)	> 100 µM (inactive)	> 100 µM (inactive)	> 100 µM (inactive)	> 100 µM (inactive)	> 100 µM (inactive)	> 100 µM (inactive)	> 100 µM (inactive)	> 100 µM (inactive)	> 100 µM (inactive)	> 100 µM (inactive)	> 100 µM (inactive)	> 100 µM (inactive)
CN(C)CC1CCC/C(=C\c2ccc(OC(=O)/C=C/c3ccc(Cl)c(Cl)c3)cc2)C1=O (stereo not given)	3.71 µM (inactive)	9.91 µM (inactive)	3.49 µM (inactive)	5.4 µM (inactive)	2.44 µM (inactive)	2.45	5.86 µM (inactive)	0.597 µM (active)	3.77 µM (inactive)	3.37 µM (inactive)	1.79 µM (inactive)	5.68 µM (inactive)	7.89 µM (inactive)	2.75 µM (inactive)	8.97 µM (inactive)	1.66 µM (inactive)	2.39 µM (inactive)	6.17 µM (inactive)	1.21 µM (inactive)	2.59 µM (inactive)
COc1ccc2[nH]c(C(=O)N3CC(CCl)c4ccc([N+](=O)[O-])cc43)cc2c1 (stereo not given)	> 23.4 µM (inactive)	> 100 µM (inactive)	> 100 µM (inactive)	> 100 µM (inactive)	> 21.6 µM (inactive)	> 100	> 100 µM (inactive)	> 100 µM (inactive)	> 100 µM (inactive)	75 µM (inactive)	> 100 µM (inactive)	> 100 µM (inactive)	> 100 µM (inactive)	> 100 µM (inactive)	> 100 µM (inactive)	> 100 µM (inactive)	> 100 µM (inactive)	> 100 µM (inactive)	> 100 µM (inactive)	> 90.4 µM (inactive)
CSc1nc(NC2OCC(OC(C)=O)C(OC(C)=O)C2OC(C)=O)c(/N=C\C=N\c2c(NC3OCC(OC(C)=O)C(OC(C)=O)C3OC(C)=O)nc(SC)[nH]c2=O)c(=O)[nH]1 (stereo not given)	> 100 µM (inactive)	> 100 µM (inactive)	> 80.2 µM (inactive)	> 100 µM (inactive)	89.7 µM (inactive)	> 100	> 100 µM (inactive)	> 54.8 µM (inactive)	> 91 µM (inactive)	> 61.2 µM (inactive)	35.5 µM (inactive)	> 100 µM (inactive)	> 100 µM (inactive)	> 100 µM (inactive)	> 100 µM (inactive)	> 100 µM (inactive)	> 100 µM (inactive)	56.4 µM (inactive)	> 100 µM (inactive)	43.7 µM (inactive)
